Measured values taken from US20260048059A1, “USE OF SUBSTITUTED BENZOXAZOLE AND BENZOFURAN COMPOUNDS FOR THE TREATMENT AND PREVENTION OF DISEASES ASSOCIATED WITH CHRONIC FATIGUE, EXHAUSTION AND/OR EXERTIONAL INTOLERANC” (MITODICURE GMBH, priority 2022, published 2026).

System: isolated rat soleus muscle
Assay: Ex vivo isolated rat soleus muscle: residual contractile force in high KCl (12.5 mM) buffer
Conditions: salbutamol 1 μM alone (control group); 30 min in KCl 12.5 mM buffer, relative to last force in initial buffer
Source text: The isolated rat muscle either soleus muscle or extensor digitorum longus muscle is a well-characterized and well-validated model for the study of the function of the Na^+/K^+ ATPase. The isolated rat soleus muscle is particularly appropriate for experiments ex vivo as it is very thin so that there is no need for blood supply. […] In the experimental setting used, the high KCl concentration buffer causes partial depolarization that leads to sodium influx to disturb and to decrease excitability to subsequently reduce muscle force. Stimulation of Na^+/K^+ ATPase lowers intracellular sodium levels towards physiological levels to restore excitability and muscular force during electrical stimulation.
As the phosphodiesterase isoenzyme subtype 7 (PDE7) is the predominant PDE isoenzyme in skeletal muscle to raise cAMP this ex vivo model is suited for the testing the effect of PDE7 inhibitors and in particular their effect on force generation disturbed by mechanisms that worsen excitability or the energetic situation. […] High level activity of Na^+/K^+ ATPase stimulated by cAMP can counteract the decrease in excitability and the loss of force. […]
Force measurement: The experimental set-up used for force measurements allowed for the simultaneous recordings from 6 muscles in separate incubation chambers in parallel. Force was recorded and stored with a Notocord HEM data acquisition system. […]

With `CC(C)(C)NCC(O)c1ccc(O)c(CO)c1` (stereo not shown) [Salbutamol] the “Mean residual contractile force in % (SEM in %)” value was 26.6 (3.7); n = 31%.
